Laboratory results reported in PubChem BioAssay AID504551 (Southern Research Specialized Biocontainment Screening …, 2011).

Tested on: MAGI-CCR5/HeLa-R5-16 cell fusion, beta-gal luminescence
Assay: HIV-1 entry blockers, R5 Env-mediated fusion – MAGI-CCR5 and HeLa-R5-16 cells, 2% serum, set 2, dose response (AID 504551)

| IC50 | Structure (SMILES) |
| --- | --- |
| 3.36 µM | Cc1c2c(=O)n(-c3nc4ccccc4s3)nc-2cc(O)n1CCc1ccc(O)cc1 |
| 3.94 µM | Cc1c2c(=O)n(-c3nc4ccccc4s3)nc-2cc(O)n1Cc1ccccc1 |
| 3.4 µM | Cc1c2c(=O)n(-c3nc4ccccc4s3)nc-2cc(O)n1Cc1ccccc1Cl |
| 3.75 µM | Cc1c2c(=O)n(-c3nc4ccccc4s3)nc-2cc(O)n1C1CC1 |
| 3.25 µM | Cc1c2c(=O)n(-c3nc4ccccc4s3)nc-2cc(O)n1CCC(C)C |
| 3.57 µM | COc1ccc(Cn2c(O)cc3nn(-c4nc5ccccc5s4)c(=O)c-3c2C)cc1 |
| 3.64 µM | Cc1c2c(=O)n(-c3nc4ccccc4s3)nc-2cc(O)n1Cc1cccnc1 |
| 3.49 µM | COc1ccc(CCn2c(O)cc3nn(-c4nc5ccccc5s4)c(=O)c-3c2C)cc1 |
| 3.7 µM | Cc1c2c(=O)n(-c3nc4ccccc4s3)nc-2cc(O)n1CCc1cccs1 |
| 3.94 µM | Cc1c2c(=O)n(-c3nc4ccccc4s3)nc-2cc(O)n1Cc1ccncc1 |
| 3.5 µM | Cc1c2c(=O)n(-c3nc4ccccc4s3)nc-2cc(O)n1Cc1cccs1 |
| 3.73 µM | COc1ccccc1Cn1c(O)cc2nn(-c3nc4ccccc4s3)c(=O)c-2c1C |
| 3.42 µM | Cc1c2c(=O)n(-c3nc4ccccc4s3)nc-2cc(O)n1Cc1ccc(F)cc1 |
